The values that follow are results of earlier work, collected in patent publication US20110230564A1, “ANT4 INHIBITOR COMPOUNDS AND METHODS OF USE THEREOF” (priority 2008, published 2011).

This series has as its system sperm. To be noted: 50 μM.

As to `CO[C@H](C/C=C\C=C\CC/C=C/C[C@H](C)/C=C/C(=C\C(=O)O)CC(=O)O)/C(C)=C\C=C(/C)C(=O)O` [Bongkrekic acid], the sperm motility entry is “almost completely immotile”.
